Experimental data reported in the NIST ThermoML archive (doi:10.1016/j.jct.2017.09.006).
Numbers after ± are expanded uncertainties.

Assays:
[1] = Molar enthalpy of transition or fusion; conditions: Crystal; DSC
[2] = Crystal; DTA

SMILES | Molar enthalpy of transition or fusion [1] [kcal/mol] | Normal melting temperature [2] [°C]
Cc1ccc2ccc(C)cc2c1 [2,7-dimethylnaphthalene] | 6.05 ± 0.263 | 95.0 ± 0.5
COC(=O)c1cccc(C(=O)OC)c1 [dimethyl 1,3-benzenedicarboxylate] | 6.67 ± 0.167 | 67.2 ± 0.5
